Assays:
Lsa-nAChR2 (α3β1β2) [1] = molecular target: T1, Lsa-nAChR2 (α3β1β2) (Lepeophtheirus salmonis, UniProt A0A7S5PZ03+A0A7S5PZ05+A0A7S5Q7H3); assay type: cell-based; conditions: co-applied at 10 μM, both ratios (10:1 and 1:10)
Lsa-nAChR1 (α1α2β1β2) [2] = molecular target: T2, Lsa-nAChR1 (α1α2β1β2) (Lepeophtheirus salmonis, UniProt A0A7S5PZ05+A0A7S5Q3W4+A0A7S5Q7H3+A0A7S5U9A3); assay type: cell-based; conditions: co-applied at 10 μM, both ratios (10:1 and 1:10)
[3] = test system: hybrid Locusta migratoria/Rattus norvegicus nAChR; set-up: method as in earlier work; conditions: hybrid receptor in Xenopus oocytes; ref 25 (Bao et al.); cited from earlier work
[4] = test system: Lsa-nAChR-α1 and Lsa-nAChR-α2 with Lsa-nAChR-β1 and APs (Lsa-nAChR-β2 removed); assay: Two-electrode voltage-clamp, oocytes with Lsa-nAChR-α1, -α2, -β1 and APs (Lsa-nAChR-β2 removed); assay type: cell-based, Lepeophtheirus salmonis; conditions: Lsa-nAChR-β2 removed from injection mix
Excerpt: (§1) To determine the subunit composition of the functional L. salmonis nAChR channel, we tried different possible combinations of the six nAChR subunit (α1, α2, α3, α7, β1 and β2) cRNAs along with the cRNAs from the three AP, injected into X. laevis oocytes, which is one of the most commonly used systems for functional expression of nAChRs. Three to five days after injection, the presence of a functional nAChR was investigated by the two-electrode voltage-clamp method. To determine the relative contribution of each gene for the functional expression of nAChR, we removed cRNAs from the injection mixture, either singularly or in combination (Fig 2). […]
(§2) Oocytes were impaled with two electrodes filled with 3 M KCl, and their membrane potentials were maintained at -80 mV throughout the experiment. Currents evoked by ACh or drugs were recorded using an automated process equipped with standard two-electrode voltage-clamp configuration (HiClamp, MultiChannel Systems). […] Data were captured at 100 Hz, filtered at 10 Hz, and analyzed using proprietary data acquisition and analysis software running under Matlab (Mathworks Inc., Natick, MA, USA). […] Plots of the peak inward currents as a function of the logarithm of the agonist concentration yield classical concentration-activation curves were readily fitted by single Hill equations. […]

Lsa-nAChR1 (α1α2β1β2) [5] = molecular target: T2, Lsa-nAChR1 (α1α2β1β2); assay: cell-based; assay type: cell-based
Protocol: (§3) Capped cRNAs were synthesized (T7 mMessage mMachine kit, Ambion, Austin, TX, USA) from the linearized vectors containing the different subunits according to the manufacturer’s protocol. cRNA samples were stored at -80°C until use. Oocytes were ordered from Ecocyte (Germany). Oocytes were microinjected using a Roboinject automatic injection system (Multi Channel Systems, Reutlingen, Germany) with 15–25 nl of cRNA solution (30–300 ng/μl per subunit) and then incubated at 18°C in sterile filtered Barth solution containing: NaCl (88 mM), KCl (1 mM), NaHCO3 (2.4 mM), HEPES (10 mM, pH 7.5), MgSO4·7H2O (0.82 mM), Ca(NO3)2·4H2O (0.33 mM), CaCl2·6H2O (0.41 mM), at pH 7.4, and supplemented with 20 μg/ml of kanamycin, 100 U/ml benzylpenicillin and 100 μg/ml streptomycin. Recordings were made 3–5 days post-cRNA injection.
(§4) Oocytes were impaled with two electrodes filled with 3 M KCl, and their membrane potentials were maintained at -80 mV throughout the experiment. Currents evoked by ACh or drugs were recorded using an automated process equipped with standard two-electrode voltage-clamp configuration (HiClamp, MultiChannel Systems). The principle of this system differs from standard electrophysiology because, instead of applying the compound in the perfusion, the oocyte is moved into a well from a 96-well microtiter plate containing the desired solution. Data were captured at 100 Hz, filtered at 10 Hz, and analyzed using proprietary data acquisition and analysis software running under Matlab (Mathworks Inc., Natick, MA, USA). Additional analyses were performed in Excel (Microsoft, Redmond, WA, USA). […] Concentration-activation curves were fitted with the equation: Y=100/1+10^H(logEC50−X) (1) where Y is the normalized response, logEC50 is the logarithm of the concentration of agonist eliciting half-maximal current amplitude, X is the log of dose or concentration, and H is the slope factor or Hill slope. Individual curves were standardized to the initial ACh (100 μM) application amplitude and subsequently averaged. EC50 values were determined from the mean of at least 3 or more cells.
(§5) Dose-response curves were obtained by sequential applications for 10s of increasing concentrations of ACh or drugs to oocytes expressing Lsa-nAChR1 or Lsa-nAChR2. A total time of 90 s time was allowed between applications for the channel to recover from any desensitization. To test the antagonistic effect of DHbE (Fig 5) and for the screening protocol (Fig 6), cells that evoked a significant current with ACh were exposed to the test compounds at 10 μM respectively 1 μM using a pre-application of 45 s and co-application of 10 s with ACh (1 μM).

Lsa-nAChR2 (α3β1β2) [6] = molecular target: T1, Lsa-nAChR2 (α3β1β2); assay: cell-based; assay type: cell-based
Protocol: as §3, §4, §5

[7] = test system: six nAChR subunits (α1, α2, α3, α7, β1 and β2) and the three APs; assay: Two-electrode voltage-clamp, oocytes co-injected with all six nAChR subunits and three ancillary proteins; assay type: cell-based, Lepeophtheirus salmonis; conditions: equimolar co-injection
Excerpt: as §1, §2

[8] = oocytes exposed to acetylcholine

T2 sequence (A0A7S5PZ05 entry or part of it): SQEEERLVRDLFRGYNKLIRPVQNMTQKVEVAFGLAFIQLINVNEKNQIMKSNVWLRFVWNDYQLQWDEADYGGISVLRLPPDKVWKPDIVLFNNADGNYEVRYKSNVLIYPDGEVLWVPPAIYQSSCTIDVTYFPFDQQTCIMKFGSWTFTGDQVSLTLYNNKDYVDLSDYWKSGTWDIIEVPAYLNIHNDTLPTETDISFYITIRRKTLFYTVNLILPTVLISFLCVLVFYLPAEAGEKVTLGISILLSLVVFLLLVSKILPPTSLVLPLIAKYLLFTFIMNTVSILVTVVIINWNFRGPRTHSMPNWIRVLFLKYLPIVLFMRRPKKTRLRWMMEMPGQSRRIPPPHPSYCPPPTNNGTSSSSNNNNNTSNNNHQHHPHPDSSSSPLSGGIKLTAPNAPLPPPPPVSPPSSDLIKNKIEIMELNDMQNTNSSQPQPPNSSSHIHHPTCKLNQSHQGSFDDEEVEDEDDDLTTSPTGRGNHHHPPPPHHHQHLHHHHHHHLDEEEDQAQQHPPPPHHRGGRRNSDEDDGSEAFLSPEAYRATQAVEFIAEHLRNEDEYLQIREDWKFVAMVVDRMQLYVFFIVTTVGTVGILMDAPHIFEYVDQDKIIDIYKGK
T2 sequence (A0A7S5Q3W4 entry or part of it): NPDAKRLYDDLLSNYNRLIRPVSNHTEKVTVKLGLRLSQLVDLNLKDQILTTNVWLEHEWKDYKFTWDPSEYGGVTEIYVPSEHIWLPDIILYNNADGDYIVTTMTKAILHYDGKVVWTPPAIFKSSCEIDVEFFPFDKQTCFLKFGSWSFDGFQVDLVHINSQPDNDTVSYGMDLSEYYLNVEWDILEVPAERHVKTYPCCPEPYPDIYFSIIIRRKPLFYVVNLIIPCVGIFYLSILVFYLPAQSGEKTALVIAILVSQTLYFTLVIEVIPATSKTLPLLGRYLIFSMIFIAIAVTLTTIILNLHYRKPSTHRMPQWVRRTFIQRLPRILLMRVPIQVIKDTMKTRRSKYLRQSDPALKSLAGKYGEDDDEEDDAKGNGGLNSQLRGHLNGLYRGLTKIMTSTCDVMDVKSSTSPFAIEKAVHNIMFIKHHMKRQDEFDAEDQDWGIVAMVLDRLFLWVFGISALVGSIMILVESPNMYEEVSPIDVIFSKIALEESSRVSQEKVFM
T2 sequence (A0A7S5U9A3 entry or part of it): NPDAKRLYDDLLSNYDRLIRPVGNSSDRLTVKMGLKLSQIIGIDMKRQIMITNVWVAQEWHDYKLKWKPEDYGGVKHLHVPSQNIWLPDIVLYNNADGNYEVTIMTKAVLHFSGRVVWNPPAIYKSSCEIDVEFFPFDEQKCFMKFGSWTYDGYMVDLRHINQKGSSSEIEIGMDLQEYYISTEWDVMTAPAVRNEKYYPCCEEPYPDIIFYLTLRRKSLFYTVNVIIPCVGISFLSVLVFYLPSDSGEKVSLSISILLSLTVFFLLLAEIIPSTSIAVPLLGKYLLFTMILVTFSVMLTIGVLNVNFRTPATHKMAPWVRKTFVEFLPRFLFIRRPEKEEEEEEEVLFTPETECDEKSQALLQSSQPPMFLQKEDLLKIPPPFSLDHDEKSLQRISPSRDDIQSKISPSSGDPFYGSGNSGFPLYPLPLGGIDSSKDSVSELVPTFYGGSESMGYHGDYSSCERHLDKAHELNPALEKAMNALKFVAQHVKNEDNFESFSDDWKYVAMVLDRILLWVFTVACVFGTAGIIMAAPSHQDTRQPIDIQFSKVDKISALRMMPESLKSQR
T2 sequence (A0A7S5Q7H3 entry or part of it): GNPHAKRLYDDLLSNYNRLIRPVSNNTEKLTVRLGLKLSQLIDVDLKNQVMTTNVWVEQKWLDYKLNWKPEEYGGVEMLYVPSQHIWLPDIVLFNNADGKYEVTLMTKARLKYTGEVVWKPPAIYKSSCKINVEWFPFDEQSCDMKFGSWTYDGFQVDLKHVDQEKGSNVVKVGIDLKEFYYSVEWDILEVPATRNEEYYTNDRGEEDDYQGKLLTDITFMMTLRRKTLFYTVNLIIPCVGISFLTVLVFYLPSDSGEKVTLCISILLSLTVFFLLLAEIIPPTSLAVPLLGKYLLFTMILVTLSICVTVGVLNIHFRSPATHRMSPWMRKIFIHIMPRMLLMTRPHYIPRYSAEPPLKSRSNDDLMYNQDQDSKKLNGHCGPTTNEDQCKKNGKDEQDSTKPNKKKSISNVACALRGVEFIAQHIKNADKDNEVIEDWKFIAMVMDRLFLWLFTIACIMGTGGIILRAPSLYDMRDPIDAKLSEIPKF

| Structure (SMILES) | inhibition of the ACh-triggered (10 μM) response (Lsa-nAChR2 (α3β1β2) [1]) | inhibition of the ACh-triggered (10 μM) response (Lsa-nAChR1 (α1α2β1β2) [2]) | maximum response to acetylcholine [3] [μA] | current (median) with 100 μM ACh [4] [μA] | current (median) with 100 μM ACh (Lsa-nAChR1 (α1α2β1β2) [5]; Lsa-nAChR-α1 and -α2 with both β subunits and APs) [μA] | type of effect on the receptor (agonist / partial-agonist / no effect) (Lsa-nAChR1 (α1α2β1β2) [5]; dose-response, 1:1 (α:β) ratio) | averaged maximum response (Lsa-nAChR1 (α1α2β1β2) [5]; [8]) [μA] | Mean Hill Slope ± SD (Lsa-nAChR1 (α1α2β1β2) [5]; ratio α/β 1:10) | Mean max current (μA) (Lsa-nAChR1 (α1α2β1β2) [5]; ratio α/β 1:10) | Mean Hill Slope ± SD (Lsa-nAChR1 (α1α2β1β2) [5]; ratio α/β 10:1) | Mean max current (μA) (Lsa-nAChR1 (α1α2β1β2) [5]; ratio α/β 10:1) | Emax (Lsa-nAChR1 (α1α2β1β2) [5]; read-out: Max peak (% Ach)) [%] | type of effect on the receptor (agonist / partial-agonist / super-agonist / no effect) (Lsa-nAChR2 (α3β1β2) [6]; dose-response, 1:1 (α:β) ratio) | Max peak (% Ach) (Lsa-nAChR2 (α3β1β2) [6]; maximal peak current compared to ACh 100 μM, 1:1 (α:β) ratio) [%] | averaged maximum response (Lsa-nAChR2 (α3β1β2) [6]; [8]) [μA] | Mean Hill Slope ± SD (Lsa-nAChR2 (α3β1β2) [6]; ratio α/β 1:10) | Mean max current (μA) (Lsa-nAChR2 (α3β1β2) [6]; ratio α/β 1:10) | Mean Hill Slope ± SD (Lsa-nAChR2 (α3β1β2) [6]; ratio α/β 10:1) | Mean max current (μA) (Lsa-nAChR2 (α3β1β2) [6]; ratio α/β 10:1) | current (median) with 100 μM ACh [7] [μA] |
| --- | --- | --- | --- | --- | --- | --- | --- | --- | --- | --- | --- | --- | --- | --- | --- | --- | --- | --- | --- | --- |
| CO[C@H]1CC=C2CCN3CCC4=C(CC(=O)OC4)[C@]23C1 [DHbE, Dihydro-β-erythroidine] | completely inhibit | completely inhibit |  |  |  |  |  |  |  |  |  |  |  |  |  |  |  |  |  |  |
| CC(=O)OCC[N+](C)(C)C [Acetylcholine] |  |  | 0.24 | 0.17 | 4.50 | agonist | > 5 | 1.44 ± 0.52 | 8.35 | 1.46 ± 0.37 | 4.85 | 100 | agonist | 100 | > 5 | 1.25 ± 0.23 | 3.17 | 1.30 ± 0.22 | 2.52 | 17.00 |
